Key:
[1] = target: Aldo-keto reductase family 1 member A1 (Bos taurus, UniProt Q3ZCJ2); assay: ALR1 in vitro Inhibition Assay; settings: pH 6.2
Experimental: The assay results were obtained at 340 nm and ALR1 inhibitory activity was measured with the absorbance change at this respective wavelength. Each well contains 200 µL of assay mixture containing potassium phosphate buffer 100 mM at pH 6.2 with test sample 20 µL of 10 mM, 70 µL enzyme preparation and 40 µL of10 mM sodium D-glucoronic acid as a substrate. This mixture was incubated at 37 °C for 5 min and 50 µL of 0.1 mM NADPH as a cofactor was added and the read was obtained at 340 nm. The assay mixture was incubated again at 37 °C for 10 min and the read was taken at the respective UV range in ELIZA plate reader. As positive and negative control, 10 mM valproic acid (20 µL) and buffer solution (20 µL) were used [Biol. Chem., 240:877-882].

[2] = target: Aldo-keto reductase family 1 member B1 [K65Q] (Bos taurus, UniProt P16116, K65Q); assay: ALR2 in vitro Inhibition Assay
Experimental: The activity of ALR2 enzyme was determined at 340 nm in UV spectrophotometer that depends upon the measurement of NADPH consumption. Each well of the 96-well plate contains 200 µL of assay mixture consisting of potassium phosphate buffer 100 mMat 6.2 pH, 20 µL of 10 mM test sample, 70 µL of enzyme preparation and substrate D,L-glyceraldehyde (40 µL), all mixture was incubated at 37 °C for 5 min and then 0.1 mM NADPH (50 µL) was added as a cofactor in the enzyme reaction and read was measured at 340 nm and followed by incubation at 37 °C for 10 min and thenabsorbance was measured in Eliza plate reader at respective wavelength. Negative and positive control used were 10 m M buffer (20 µL) and 10 mM sulindac (20 µL) [Med. Chem. Commun., 5:1371-1380].

Sequence of Aldo-keto reductase family 1 member A1 (Q3ZCJ2 whole entry): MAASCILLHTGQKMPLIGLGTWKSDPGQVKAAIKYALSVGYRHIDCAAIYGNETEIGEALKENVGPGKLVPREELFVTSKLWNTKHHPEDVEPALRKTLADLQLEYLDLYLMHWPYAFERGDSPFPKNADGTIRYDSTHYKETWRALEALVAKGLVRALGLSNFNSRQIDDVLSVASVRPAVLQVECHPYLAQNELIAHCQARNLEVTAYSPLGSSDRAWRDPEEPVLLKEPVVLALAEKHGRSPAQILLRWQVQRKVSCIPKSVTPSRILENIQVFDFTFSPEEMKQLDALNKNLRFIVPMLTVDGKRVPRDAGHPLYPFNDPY

Row | Compound | IC50 [1] [µM] | IC50 [2] [µM]
1 | O=c1oc2ccccc2cc1-c1nn(CN(c2ccccc2)c2ccccc2)c(=S)o1 [3-(4-((Diphenylamino)methyl)-5-thioxo-4,5-dihydro-1,3,4-oxadiazol-2-yl)-2H-chromen-2-one (11h)] | – | 3.39
2 | COc1ccc(/C(C)=N/Nc2nc(-c3cc4ccccc4oc3=O)cs2)c(O)c1 [(E)-3-(2-(2-(1-(2-hydroxy-4-methoxyphenyl)ethylidene)hydrazinyl)thiazol-4-yl)-2H-chromen-2-one (6j)] | 5.47 | –
3 | Cc1ccc(NCn2nc(-c3cc4ccccc4oc3=O)oc2=S)cc1 [3-(4-((p-Toluidino)methyl)-5-thioxo-4,5-dihydro-1,3,4-oxadiazol-2-yl)-2H-chromen-2-one (11c)] | 7.11 | –
4 | O=c1oc2ccccc2cc1-c1nn(CNc2ccc(Cl)cc2)c(=S)o1 [3-(4-((4-Chlorophenylamino)methyl)-5-thioxo-4,5-dihydro-1,3,4-oxadiazol-2-yl)-2H-chromen-2-one (11f)] | 5.68 | 3.39
5 | COc1cc(/C(C)=N/Nc2nc(-c3cc4ccccc4oc3=O)cs2)ccc1O [(E)-3-(2-(2-(1-(4-hydroxy-3-methoxyphenyl)ethylidene)hydrazinyl)thiazol-4-yl)-2H-chromen-2-one (6k)] | 1.41 | 1.76
6 | O=c1oc2ccccc2cc1-c1nn(CNc2cccc(Cl)c2)c(=S)o1 [3-(4-((3-Chlorophenylamino)methyl)-5-thioxo-4,5-dihydro-1,3,4-oxadiazol-2-yl)-2H-chromen-2-one (11e)] | 15.2 | –
7 | CCCCNCn1nc(-c2cc3ccccc3oc2=O)oc1=S [3-(4-((Butylamino)methyl)-5-thioxo-4,5-dihydro-1,3,4-oxadiazol-2-yl)-2H-chromen-2-one (11b)] | 3.36 | 57.5
8 | CC1=C(CC(=O)O)c2cc(F)ccc2/C1=C\c1ccc([S@@+](C)[O-])cc1 [cis-5-Fluoro-2-methyl-1-((p-methylsulfinyl)benzylidene)indene-3-acetic acid] | – | 0.293
9 | COc1ccc(/C(C)=N/Nc2nc(-c3cc4ccccc4oc3=O)cs2)cc1F [(E)-3-(2-(2-(1-(3-fluoro-4-methoxyphenyl)ethylidene)hydrazinyl)thiazol-4-yl)-2H-chromen-2-one (6i)] | 1.08 | –
10 | O=c1oc2ccccc2cc1-c1nn(CNc2ccccc2Cl)c(=S)o1 [3-(4-((2-Chlorophenylamino)methyl)-5-thioxo-4,5-dihydro-1,3,4-oxadiazol-2-yl)-2H-chromen-2-one (11d)] | – | 0.31
11 | O=c1oc2ccccc2cc1-c1nn(CN2CCOCC2)c(=S)o1 [3-(4-(Morpholinomethyl)-5-thioxo-4,5-dihydro-1,3,4-oxadiazol-2-yl)-2H-chromen-2-one (11g)] | – | 0.34
12 | C/C(=N\Nc1nc(-c2cc3ccccc3oc2=O)cs1)c1cc2ccccc2oc1=O [Coumarin-thiazole series I, 6o] | 8.91 | –
13 | COc1ccc(/C(C)=N/Nc2nc(-c3cc4ccccc4oc3=O)cs2)cc1I [(E)-3-(2-(2-(1-(3-iodo-4-methoxyphenyl)ethylidene)hydrazinyl)thiazol-4-yl)-2H-chromen-2-one (6l)] | 14.4 | –

Continued, values first:

Row | IC50 [1] [µM] | IC50 [2] [µM] | Compound
14 | 17.1 | – | O=c1oc2ccccc2cc1-c1csc(NN=C(c2ccccc2)c2ccccc2)n1 [3-(2-(2-(diphenylmethylene)hydrazinyl)thiazol-4-yl)-2Hchromen-2-one (6n)]
15 | 1.71 | 0.11 | C/C(=N\Nc1nc(-c2cc3ccccc3oc2=O)cs1)c1ccc(Br)cc1 [(E)-3-(2-(2-(1-(4-bromophenyl)ethylidene)hydrazinyl)thiazol-4-yl)-2H-chromen-2-one (6e)]
16 | 34.7 | 0.16 | C/C(=N\Nc1nc(-c2cc3ccccc3oc2=O)cs1)c1ccccc1Br [(E)-3-(2-(2-(1-(2-bromophenyl)ethylidene)hydrazinyl)thiazol-4-yl)-2H-chromen-2-one (6c)]
17 | 2.94 | 0.12 | C/C(=N\Nc1nc(-c2cc3ccccc3oc2=O)cs1)c1ccccc1 [Coumarin-thiazole series I, 6a]
18 | 7.62 | – | COc1ccc(/C(C)=N/Nc2nc(-c3cc4ccccc4oc3=O)cs2)cc1 [(E)-3-(2-(2-(1-(4-methoxyphenyl)ethylidene)hydrazinyl)thiazol-4-yl)-2H-chromen-2-one (6h)]
19 | 57.4 | – | C/C(=N\Nc1nc(-c2cc3ccccc3oc2=O)cs1)c1ccccc1F [(E)-3-(2-(2-(1-(2-fluorophenyl)ethylidene)hydrazinyl)thiazol-4-yl)-2H-chromen-2-one (6f)]
20 | 93.6 | 6.35 | C/C(=N\Nc1nc(-c2cc3ccccc3oc2=O)cs1)c1cccc(Br)c1 [(E)-3-(2-(2-(1-(3-bromophenyl)ethylidene)hydrazinyl)thiazol-4-yl)-2H-chromen-2-one (6d)]
